According to US20020119107A1, “Method for protecting and restoring skin using selective MMP inhibitors” (priority 2000, published 2002):
Blank lines part the entries; values can stand above or below the molecule they belong to.

Assays:
[1] = tested on: collagen-degrading enzymes from human skin (basal cell carcinoma conditioned medium)
Protocol: (§1) Collagen-degrading enzyme preparations. A collagenolytic enzyme preparation from Clostridium histolyticum (Collagenase type I; Worthington Biochemical Corp, Freehold, N.J.) was used to produce fragmentation of the collagen. […] The bacterial enzyme preparation cleaves intact collagen at numerous sites to produce low molecular weight fragments. Collagenolytic activity was quantified by exposing 1 mg of rat tail (monomeric) collagen to varying concentrations of enzyme preparation for 5 hours at 37° C. Intact collagen exposed to buffer alone served as control. At the end of the incubation period, the control collagen and enzyme-treated collagen were resolved on SDS-PAGE and stained with Coomassie brilliant blue. Laser densitometry was used to quantify α1(I) and α2(I) bands in the intact and digested preparations. […] Human basal cell carcinoma tissue was used as a source of collagen-degrading enzymes from human skin. Fresh tumor specimens obtained at surgery were cut into 2-mm pieces, and 6-8 tissue pieces incubated for 72 hours in 0.5 ml of Ca^2+-supplemented MCDB-153. Incubation was at 37° C. and 5% CO2. At the end of the incubation period, the culture fluid was obtained and used as the enzyme source.

bacterial collagenase = conditions: gel exposed to bacterial collagenase plus 10 mM EDTA, EDTA then neutralized with Ca2+; FIG. 8B
Protocol: as §1

[2] = tested on: collagenolytic enzyme preparation from Clostridium histolyticum (Collagenase type I)
Protocol: as §1

MMP-2 = biological target: T1, MMP-2 (Homo sapiens, UniProt P08253); conditions: from Whittaker et al., Chem. Rev. 1999; cited from earlier work
T1 sequence (P08253 110-660): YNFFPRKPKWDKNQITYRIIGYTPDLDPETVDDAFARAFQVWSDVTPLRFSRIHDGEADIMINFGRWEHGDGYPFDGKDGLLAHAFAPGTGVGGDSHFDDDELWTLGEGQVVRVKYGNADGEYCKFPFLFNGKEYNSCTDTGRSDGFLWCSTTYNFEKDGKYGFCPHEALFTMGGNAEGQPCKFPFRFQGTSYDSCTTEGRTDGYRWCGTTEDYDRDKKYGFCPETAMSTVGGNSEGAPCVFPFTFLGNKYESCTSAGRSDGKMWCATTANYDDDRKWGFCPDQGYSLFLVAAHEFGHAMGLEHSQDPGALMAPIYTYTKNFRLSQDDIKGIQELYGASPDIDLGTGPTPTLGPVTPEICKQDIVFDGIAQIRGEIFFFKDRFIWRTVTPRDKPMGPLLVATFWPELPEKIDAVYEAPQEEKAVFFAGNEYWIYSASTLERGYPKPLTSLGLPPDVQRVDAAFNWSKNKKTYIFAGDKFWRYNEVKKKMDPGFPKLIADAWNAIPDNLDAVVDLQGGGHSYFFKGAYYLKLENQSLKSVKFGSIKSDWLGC

MMP-9 = MMP-9 (Homo sapiens, UniProt P14780); conditions: from Whittaker et al., Chem. Rev. 1999; cited from earlier work
human skin collagenase = experiment: Fibroblast contraction of collagen gels treated with human skin collagenase; type: cell-based; conditions: gels treated with human skin collagenase in the presence of 10 μg of aprotinin; FIG. 8B
Protocol: Preparation of polymerized collagen gels. […] During this period, the collagen formed a polymerized gel.
Collagen-degrading enzyme preparations. […] Intact collagen exposed to buffer alone served as control. […] Incubation was at 37° C. and 5% CO2.

MMP-9, sequence (P14780 94-707): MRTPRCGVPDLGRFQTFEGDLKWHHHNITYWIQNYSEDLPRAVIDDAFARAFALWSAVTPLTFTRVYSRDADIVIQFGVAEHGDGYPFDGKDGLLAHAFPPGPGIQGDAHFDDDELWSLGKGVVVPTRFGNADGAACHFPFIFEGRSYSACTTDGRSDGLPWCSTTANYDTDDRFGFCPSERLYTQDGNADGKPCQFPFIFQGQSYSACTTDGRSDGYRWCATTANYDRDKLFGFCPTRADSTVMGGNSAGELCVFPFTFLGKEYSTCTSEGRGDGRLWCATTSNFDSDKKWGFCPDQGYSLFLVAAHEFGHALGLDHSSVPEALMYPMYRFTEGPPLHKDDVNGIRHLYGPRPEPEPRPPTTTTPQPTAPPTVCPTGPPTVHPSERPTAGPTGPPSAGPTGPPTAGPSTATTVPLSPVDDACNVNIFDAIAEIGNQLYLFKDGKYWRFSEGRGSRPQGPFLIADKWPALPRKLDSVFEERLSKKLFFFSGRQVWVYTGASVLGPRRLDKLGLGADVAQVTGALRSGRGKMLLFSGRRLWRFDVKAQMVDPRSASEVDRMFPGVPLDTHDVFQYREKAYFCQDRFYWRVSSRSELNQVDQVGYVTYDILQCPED

Molecule: O=C(O)CN(CCN(CC(=O)O)CC(=O)O)CC(=O)O [EDTA, ethylene diamine tetraacetic acid]
zymographic activities ([1]; 10 mM EDTA in the incubation buffer, gelatin, collagen and β-casein): suppressed zymographic activities
collagen-degradation ([1]; 10 mM EDTA in the reaction mixture): suppressed collagen-degradation
collagen contraction (bacterial collagenase): no collagen contraction
reactivity in zymography ([2]; 10 mM EDTA included in the overnight incubation buffer, gelatin and monomeric collagen): Reactivity was lost
collagen breakdown ([2]; 10 mM EDTA included in the reaction mixture, 1 mg rat tail monomeric collagen, 5 hours at 37° C.): no detectable collagen breakdown

Molecule: CN1C(=O)N(C[C@H](C(=O)NO)[C@@H](CC2CCCC2)C(=O)N2CCCCC2)C(=O)C1(C)C [compound 52]
IC50 (MMP-2): 154 nM
IC50 (MMP-9): 59 nM

collagen contraction (human skin collagenase): not
Molecule: aprotinin
